Earlier results in patent publication US10551383B2, “Methods of detecting a polypeptide having anaplastic lymphoma kinase activity in kidney cancer” (Cell Signaling Technology, Inc., priority 2010, dated 2020).

Tested on: HGF-stimulated Madin-Darby Canine Kidney (MDCK) cells
Conditions: disclosed in U.S. Pub. No. 2008/0300273

Structure (SMILES): C[C@@H](Oc1cc(-c2cnn(C3CCNCC3)c2)cnc1N)c1c(Cl)ccc(F)c1Cl [PF-02341066, Crizotinib]
- cell colony scattering: able to reduce cell colony scattering
